Counter-ions that a name gives are not always drawn. Like-named read-outs stand apart in the source and are kept apart here.
Assays:
AMO-1 = experiment: Antiproliferation assay (Assay 7), AMO-1; format: cell-based; settings: CellTiter-Glo, several values per example, read-out: Antiproli AMO-1 [M] IC50
Description: (§1) Assessment of the Anti-Proliferative Effect of Compounds in Different Cell Lines
(§2) The impact of compounds on the proliferation of different cell lines was assessed using the CellTiter-Glo® Luminescent Cell Viability reagent from Promega (G7573).
(§3) In parallel, cells were plated in a reference (day 0) plate for time zero determination.
(§4) Rim wells were excluded. The cells were incubated for 72 hours in a humidified incubator at 37° C. The day 0 plate was measured by adding 30 μL/well of CTG solution (CellTiter-Glo® Luminescent Cell Viability reagent, Promega G7573) to time zero wells in the reference plate followed by a 10 minutes incubation and luminescence reading at 0.1 ms. using the PHERAstar FS microplate reader (BMG Labtech).
(§5) After 72 hours incubation, the treated plates were measured in the same way as the day 0 plate mentioned above.

SUDHL5 [1] = experiment: Induction of cytotoxicity (Assay 6), SUDHL5; settings: read-out: Cytotox SUDHL5 [M] (median) IC50, CellTiter-Glo, 5 hours, SUDHL5
SUDHL5 [2] = experiment: Induction of caspase-3/7 activity (Assay 4), SUDHL5; format: cell-based; settings: caspase-3/7 induction, median
Description: (§6) Cellular Assays Assay 4 Induction of Caspase-3/7 Activity Upon Treatment of Cells with Selected Compounds
(§7) The BH3-domain of MCL-1 sequesters pro-apoptotic proteins, thereby inhibiting apoptosis. In contrast, MCL-1 inhibitors are expected to antagonize this effect leading to an increase in apoptosis, which can be determined by measuring the activity of caspase-3/7.
(§8) The activity of caspase-3/7 was determined in DLBCL (Diffuse large B-cell lymphoma) cell lines (SUDHL5 and SUDHL10) upon treatment with different compounds, using the Caspase-Glo® 3/7 reagent from Promega (G8092).
(§9) Rim wells were excluded. The cells were incubated for 3 hours in a humidified incubator at 37° C.
(§10) For the evaluation of the results, the background measured with “medium-only” was subtracted from all other values. […] The Bella DRC Master Sheet was used to calculate EC50s, with fixed C0=1 and CI=plateau/max induction for the reference compound.

MCL-1 = MCL-1 (Homo sapiens (Human), UniProt Q07820, K194A/K197A/R201A); experiment: Protein-protein interaction assay MCL-1/Noxa BH3 peptide (MCL-1 assay, TR-FRET); format: binding; settings: MBP-MCL-1 / Noxa BH3 peptide, median
Chain of MCL-1 (Q07820 whole entry K194A/K197A/R201A, looked up): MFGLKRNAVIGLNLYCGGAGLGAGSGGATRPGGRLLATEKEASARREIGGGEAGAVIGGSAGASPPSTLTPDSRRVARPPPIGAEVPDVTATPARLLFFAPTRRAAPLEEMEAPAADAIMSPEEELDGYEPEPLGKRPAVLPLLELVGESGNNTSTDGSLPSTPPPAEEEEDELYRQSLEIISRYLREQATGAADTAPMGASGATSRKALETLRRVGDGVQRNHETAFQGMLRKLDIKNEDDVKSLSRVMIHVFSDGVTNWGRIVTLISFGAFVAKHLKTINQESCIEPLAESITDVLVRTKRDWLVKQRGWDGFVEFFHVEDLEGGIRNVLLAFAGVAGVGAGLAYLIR
Description: Protein-Protein Interaction Assay: MCL-1/Noxa BH3 Peptide (MCL-1 Assay)
The dose-dependent inhibition by the compounds described in this invention of the interaction between MCL-1 and the BH3 domain of Noxa (both human) was determined using a steady state binding competition assay with time-resolved fluorescence energy transfer (TR-FRET) readout. For that purpose MCL-1 (amino acids 173-329, N-terminal fused to Maltose Binding Protein (MBP) SEQ ID 1) and a synthetic Noxa BH3-derived peptide of sequence Biotin-PEG2-PEG2-PAELEVE-Nva-ATQLRRFGDKLNFRQKLL-amide (SEQ ID 2) served as protein receptor and tracer ligand respectively. The MBP-MCL-1 was purchased from Beryllium (Bedford, Mass., USA). The expression and purification of this protein construct has been described elsewhere (DOI:10.1371/journal.pone.0125010). The Noxa BH3-derived peptide can be obtained from e.g. Biosyntan (Berlin, Germany).
In the assay 11 different concentrations of each compound (0.1 nM, 0.33 nM, 1.1 nM, 3.8 nM, 13 nM, 44 nM, 0.15 μM, 0.51 μM, 1.7 μM, 5.9 μM and 20 μM) were typically measured as duplicates in the same microtiter plate. For that, 100-fold concentrated DMSO solutions were prepared by serial dilutions (1:3.4) of a 2 mM stock solution in a clear, 384-well microtiter plate (Greiner Bio-One, Frickenhausen, Germany). From there, 50 nl were transferred in a dark test plate (Greiner Bio-One, Frickenhausen, Germany). The assay was initiated by addition of 2 μl of a 2.5-fold concentrated MBP-MCL-1 solution (usually for a 1 nM end concentration in 5 μl reaction volume) in aqueous assay buffer [50 mM Tris/HCl pH 7, 100 mM sodium chloride (NaCl), 50 mM potassium fluoride (KF), 0.005% Tween-20, 2 mM DTT, 0.1% bovine gamma globulin (BGG)] to the compounds in the assay plate. This was followed by a 10-minute incubation step at 22° C. for pre-equilibration of the putative complex between MBP-MCL-1 and the compounds. After that, 3 μl of a 1.67-fold concentrated solution (in assay buffer) consisting of Noxa BH3-derived peptide (1 nM end concentration) and TR-FRET detection reagents [1.67 nM anti-MBP-Eu cryptate and 1.67 nM streptavidin-XL665 (both from Cisbio Bioassays, Codolet, France)], were added.
The mixture was incubated in the dark for one hour at 22° C. and then overnight at 4° C. The formation of MCL-1/Noxa complexes was determined by measuring the resonance energy transfer of the anti-MBP-Eu-cryptate antibody to the streptavidin-XL665 present in the reaction. For that purpose, the fluorescence emission at 620 nm and 665 nm after excitation at 330-350 nm was measured in a TR-FRET measuring instrument, for instance a Rubystar or a Pherastar (both from BMG Lab Technologies, Offenburg, Germany) or a Viewlux (Perkin-Elmer). The ratio of the emission at 665 nm and at 622 nm was used as indicator of the amount of MCL-1/NOXA complexes present.
The resulting data (ratio) were normalized, taking 0% inhibition as the mean value of control measurements (usually 32 data points) where all reagents were included. In this case 50 nl DMSO were used instead of compounds. A 100% inhibition corresponded to the mean value of control measurements (usually 32 data points) where all reagents except MCL-1 were included. IC50 values were determined by regression analysis based on a 4 parameter equation (minimum, maximum, IC50, Hill; Y=Max+(Min−Max)/(1+(X/IC50)^HiII) using the Screener Software (Genedata).

MV-4-11 = experiment: Antiproliferation assay (Assay 7), MV-4-11; format: cell-based; settings: Homo sapiens, MV4-11, 72 h, CellTiter-Glo, several values per example, read-out: Antiproli MV-4-11 [M] IC50
Description: as §1, §2, §3, §4, §5

SUDHL5 [3] = experiment: Antiproliferation assay (Assay 7), SUDHL5; format: cell-based; settings: CellTiter-Glo, median, read-out: Antiproli SUDHL5 [M] (median) IC50
Description: as §1, §2, §3, §4, §5

SUDHL10 [4] = experiment: Induction of cytotoxicity (Assay 6), SUDHL10; settings: read-out: Cytotox SUDHL10 [M] (median) IC50, CellTiter-Glo, 5 hours, SUDHL10
SUDHL10 [5] = experiment: Induction of caspase-3/7 activity (Assay 4), SUDHL10; format: cell-based; settings: caspase-3/7 induction, median
Description: as §6, §7, §8, §9, §10

HMC-1-8 = experiment: Antiproliferation assay (Assay 7), HMC-1-8; format: cell-based; settings: CellTiter-Glo, 72 hours, several values per example, read-out: Antiproli HMC-1-8 [M] IC50
Description: as §1, §2, §3, §4, §5

SMILES: CCc1c2c(nn1C)CN(C)S(=O)(=O)CCCn1c(C(=O)O)c(CCCOc3cccc4cc(F)ccc34)c3ccc(Cl)c-2c31 (racemic) [Example 19, (rac)-13-Chloro-12-ethyl-1-(3-((6-fluoronaphthalen-1-yl)oxy)propyl)-8,11-dimethyl-5,6,9,11-tetrahydro-4H,8H-pyrazolo[3′,4′:4,5][1]thia[2,8]diazacycloundecino[6,7,8-hi]indole-2-carboxylic acid 7,7-dioxide]
- IC50 (AMO-1; Homo sapiens, AMO1, 72 h): 1.5e-06 M
- IC50 (SUDHL5 [1]; Homo sapiens, SU-DHL-5, 5 h): 4.6e-07 M
- EC50 (SUDHL5 [2]; Homo sapiens, SU-DHL-5, 3 h): 420 nM
- IC50 (MCL-1): 1.8 nM
- IC50 (MV-4-11): 8.39e-07 M
- IC50 (SUDHL5 [3]; Homo sapiens, SU-DHL-5, 72 h): 3.1e-07 M
- IC50 (SUDHL10 [4]; Homo sapiens, SU-DHL10, 5 h): 8.5e-07 M
- EC50 (SUDHL10 [5]; Homo sapiens, SU-DHL10, 3 h): 610 nM

SMILES: CCc1c2c(nn1C)C(N1CCOCC1)CCN(C)S(=O)(=O)CCCn1c(C(=O)O)c(CCCOc3cccc4cc(F)ccc34)c3ccc(Cl)c-2c31 (single isomer, unassigned; enantiomer 2) [Example 71, (−)-4-chloro-3-ethyl-7-{3-[(6-fluoro-1-naphthyl)oxy]propyl}-2,14-dimethyl-17-(morpholin-4-yl)-11,12,14,15,16,17-hexahydro-2H,10H-pyrazolo[3′,4′:6,7][1,2,10]thiadiazacyclotridecino[8,9,10-hi]indole-8-carboxylic acid 13,13-dioxide trifluoroacetate salt (Enantiomer 2)]
- IC50 (HMC-1-8): 3.2e-06 M
- IC50 (SUDHL5 [1]): 1e-07 M
- EC50 (SUDHL5 [2]; 3 hours): 71 nM
- IC50 (MCL-1): 0.8 nM
- IC50 (SUDHL5 [3]; 72 hours): 1.3e-07 M
- IC50 (SUDHL10 [4]): 1.5e-07 M
- EC50 (SUDHL10 [5]; 3 hours): 140 nM

SMILES: CCc1c2c(nn1C)C(N1CCOCC1)CCN(C)S(=O)(=O)CCCn1c(C(=O)O)c(CCCOc3cccc4cc(F)ccc34)c3ccc(Cl)c-2c31 (single isomer, unassigned; enantiomer 1) [Example 70, (+)-4-chloro-3-ethyl-7-{3-[(6-fluoro-1-naphthyl)oxy]propyl}-2,14-dimethyl-17-(morpholin-4-yl)-11,12,14,15,16,17-hexahydro-2H,10H-pyrazolo[3′,4′:6,7][1,2,10]thiadiazacyclotridecino[8,9,10-hi]indole-8-carboxylic acid 13,13-dioxide trifluoroacetate salt (Enantiomer 1)]
- IC50 (HMC-1-8): 1.5e-05 M
- IC50 (AMO-1; 72 hours): 7.3e-06 M
- IC50 (SUDHL5 [1]): 2.6e-06 M
- EC50 (SUDHL5 [2]; 3 hours): 2600 nM
- IC50 (MCL-1): 86 nM
- IC50 (SUDHL5 [3]; 72 hours): 4e-06 M
- IC50 (SUDHL10 [4]): 4.7e-06 M
- EC50 (SUDHL10 [5]; 3 hours): 4400 nM

SMILES: Cc1c2c(nn1C)CN(C)S(=O)(=O)CCCn1c(C(=O)O)c(CCCOc3cccc4ccccc34)c3cccc-2c31 (single isomer, unassigned; enantiomer 2) [Example 12, (−)-2,3,14-Trimethyl-7-[3-(1-naphthyloxy)propyl]-11,12,14,15-tetrahydro-2H,10H-pyrazolo[3′,4′:4,5][1,2,8]thiadiazacycloundecino[6,7,8-hi]indole-8-carboxylic acid 13,13-dioxide-N-ethylethanamine Salt (Enantiomer 2)]
- IC50 (SUDHL5 [1]): 2.7e-05 M
- IC50 (SUDHL10 [4]): 2.7e-05 M

SMILES: CCc1c2c(nn1C)C(N1CCOCC1)CCN(C)S(=O)(=O)CCCn1c(C(=O)O)c(CCCOc3cccc4cc(F)ccc34)c3ccc(Cl)c-2c31 (racemic) [Example 69, (rac)-15-chloro-14-ethyl-1-(3-((6-fluoronaphthalen-1-yl)oxy)propyl)-8,13-dimethyl-11-(rac)-morpholino-5,6,9,10,11,13-hexahydro-4H,8H-pyrazolo[3′,4′:6,7][1]thia[2,10]diazacyclotridecino[8,9,10-hi]indole-2-carboxylic acid 7,7-dioxide (Mixture of Stereoisomers)]
- IC50 (SUDHL5 [1]; Homo sapiens, SU-DHL-5, 5 h): 3.1e-07 M
- EC50 (SUDHL5 [2]; Homo sapiens, SU-DHL-5, 3 h): 250 nM
- IC50 (MCL-1): 1.5 nM
- IC50 (SUDHL10 [4]; Homo sapiens, SU-DHL10, 5 h): 1.3e-06 M
- EC50 (SUDHL10 [5]; Homo sapiens, SU-DHL10, 3 h): 650 nM

SMILES: Cc1c2c(nn1C)CN(C)S(=O)(=O)CCCn1c(C(=O)O)c(CCCOc3cccc4ccccc34)c3cccc-2c31 (single isomer, unassigned; enantiomer 1) [Example 11, (+)-2,3,14-Trimethyl-7-[3-(1-naphthyloxy)propyl]-11,12,14,15-tetrahydro-2H,10H-pyrazolo[3′,4′:4,5][1,2,8]thiadiazacycloundecino[6,7,8-hi]indole-8-carboxylic acid 13,13-dioxide-N-ethylethanamine Salt (Enantiomer 1)]
- IC50 (SUDHL5 [1]): 1.6e-06 M
- IC50 (SUDHL10 [4]): 3.7e-06 M

SMILES: CCc1c2c(nn1C)CN(CC)S(=O)(=O)CCCn1c(C(=O)O)c(CCCOc3cccc4cc(F)ccc34)c3ccc(Cl)c-2c31 (single isomer, unassigned; enantiomer 2) [Example 58, (−)-4-chloro-3,14-diethyl-7-{3-[(6-fluoronaphthalen-1-yl)oxy]propyl}-2-methyl-13,13-dioxo-10,11,12,13,14,15-hexahydro-2H-13lambda^6-pyrazolo[3′,4′:4,5][1,2,8]thiadiazacycloundecino[6,7,8-hi]indole-8-carboxylic acid N-ethylethanamine Salt (Enantiomer 2)]
- IC50 (HMC-1-8): 1.5e-05 M
- IC50 (AMO-1; 72 hours): > 3.3e-05 M
- IC50 (SUDHL5 [1]): 1.2e-05 M
- EC50 (SUDHL5 [2]; 3 hours): 15000 nM
- IC50 (MCL-1): 28 nM
- IC50 (SUDHL5 [3]; 72 hours): 1.5e-05 M
- EC50 (SUDHL10 [5]; 3 hours): 32000 nM
